Reference: PMC7696167 (Pharmaceutics, 2020)

Experiments:
[1] = Population pharmacokinetic model of oral roscovitine and metabolite M3, first dose, ROSCO-CF trial
CYP2B6 = test system: CYP2B6; design: method as in PMID 18048486; settings: cited from earlier work
[2] = test system: P-glycoprotein 1 (P-gp, MDR1 or ABCB1) efflux pump; design: method as in PMID 20699410; settings: cited from earlier work
CYP3A4 = test system: CYP3A4; design: method as in PMID 18048486; settings: cited from earlier work
[3] = population estimate, adult CF patients, oral
[4] = population estimate, covariate effect

CC[C@@H](Nc1nc(NCc2ccccc2)c2ncn(C(C)C)c2n1)C(=O)O [M3]
ke: elimination rate of the metabolite ([1]; population estimate): 2.58 h⁻¹

CC[C@H](CO)Nc1nc(NCc2ccccc2)c2ncn(C(C)C)c2n1 [roscovitine, (R)-roscovitine]
substrate for CYP2B6 (CYP2B6): substrate | rate of absorption in patients treated with PPIs ([1]; oral roscovitine, adult CF patients): slower rate of absorption | CV1: coefficient of variation of first inverse Gaussian absorption function ([1]; population estimate): 0.542 | CV2: coefficient of variation of second inverse Gaussian absorption function ([1]; population estimate): 0.354 | k12: distribution rate to the peripheral compartment ([1]; population estimate): 1.82 h⁻¹ | k21: distribution rate from the peripheral compartment ([1]; population estimate): 0.768 h⁻¹ | kmet: systemic conversion rate of roscovitine in its carboxylate metabolite M3 ([1]; population estimate): 2.07 h⁻¹ | T1max: time at which the first inverse Gaussian absorption function reaches its maximum [1, 3]: 0.676 h | dT2max (T2max = T1max + dT2max), inverse Gaussian absorption parameter [1, 3]: 1.04 h | π1: weight associated with the first input fraction [1, 3]: 0.285 | D50: oral dose of roscovitine for which Fdose is 50% ([1]; population estimate, adult CF patients, oral 200-800 mg): 1190 µmol | β (PPI = 1) on T1max: coefficient for modification of T1max in patients taking PPI [1, 4]: 0.680 | β height (cm) on V: coefficient for the effect of height on V/F [1, 4]: 6.47 | V/F: apparent volume of the central compartment after oral administration ([1]; population estimate, single parameter common to roscovitine and M3, reference height 170 cm): 62.2 L | substrate for P-glycoprotein 1 efflux pump [2]: substrate | substrate for CYP3A4 (CYP3A4): substrate
